Assay results as given in ChEMBL document CHEMBL1201862, “PubChem BioAssay data set” (2004).
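Exposure lasted 48 hours, with cells grown in 96-well plates and compounds tested at five concentrations. Abbreviation: GI50, concentration required for 50% inhibition of growth.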 Active and inactive are the calls of the source. Cut-off read from the data, not from the text of the source: active = GI50 up to about 1.1 µM and inactive = higher.

Legend:
Test in all cases: NCI-60 cell line screen, 48 h
A498 = test system: A498
ACHN = test system: ACHN
HCT-116 = test system: HCT-116
HL-60 = test system: HL-60
HOP-92 = test system: HOP-92
IGROV-1 = test system: IGROV-1
LOX IMVI = test system: LOX IMVI
MCF7 = test system: MCF7
MDA-N = test system: MDA-N
Malme-3M = test system: Malme-3M
NCI-H23 = test system: NCI-H23
OVCAR-3 = test system: OVCAR-3
OVCAR-5 = test system: OVCAR-5
SF-539 = test system: SF-539
SK-MEL-2 = test system: SK-MEL-2
SK-MEL-5 = test system: SK-MEL-5
SNB-75 = test system: SNB-75
TK-10 = test system: TK-10
U-251 = test system: U-251
UACC-257 = test system: UACC-257

Row | SMILES | GI50 (A498) | GI50 (ACHN) | GI50 (HCT-116) | GI50 (HL-60) | GI50 (HOP-92) | GI50 (IGROV-1) | GI50 (LOX IMVI) | GI50 (MCF7) | GI50 (MDA-N) | GI50 (Malme-3M) | GI50 (NCI-H23) | GI50 (OVCAR-3) | GI50 (OVCAR-5) | GI50 (SF-539) | GI50 (SK-MEL-2) | GI50 (SK-MEL-5) | GI50 (SNB-75) | GI50 (TK-10) | GI50 (U-251) | GI50 (UACC-257)
1 | CCOC(=O)/C(=C/Nc1c(C)n(C)n(-c2ccccc2)c1=O)C(C)=O | > 100 µM (inactive) | > 100 µM (inactive) | > 100 µM (inactive) | > 100 µM (inactive) | > 100 µM (inactive) | > 100 µM (inactive) | > 100 µM (inactive) | > 100 µM (inactive) | > 100 µM (inactive) | > 100 µM (inactive) | > 100 µM (inactive) | > 100 µM (inactive) | > 100 µM (inactive) | > 100 µM (inactive) | > 100 µM (inactive) | > 100 µM (inactive) | > 100 µM (inactive) | > 100 µM (inactive) | > 100 µM (inactive) | > 100 µM (inactive)
2 | CC(C)c1ccc(C2NC(S)=NC3=C2c2ccccc2C3=O)cc1 (configuration not stated) | 36.7 µM (inactive) | 27.7 µM (inactive) | 23.6 µM (inactive) | 8.75 µM (inactive) | 22.3 µM (inactive) | 27 µM (inactive) | 20.6 µM (inactive) | 10.2 µM (inactive) | 5.31 µM (inactive) | 26.2 µM (inactive) | 23.6 µM (inactive) | 26.2 µM (inactive) | 34 µM (inactive) | 18.7 µM (inactive) | 17.4 µM (inactive) | 20.1 µM (inactive) | 15.7 µM (inactive) | 34 µM (inactive) | 26.7 µM (inactive) | > 41.4 µM (inactive)
3 | CCOP(=O)(Nc1ccc2oc(=O)c3ccccc3c2c1)OCC | 27.5 µM (inactive) | 33.2 µM (inactive) | 66.2 µM (inactive) | 19.4 µM (inactive) | 24.6 µM (inactive) | 48 µM (inactive) | 47.5 µM (inactive) | 14.2 µM (inactive) | 97.5 µM (inactive) | > 100 µM (inactive) | > 100 µM (inactive) | 45.2 µM (inactive) | 80.4 µM (inactive) | > 100 µM (inactive) | 62.5 µM (inactive) | 28.6 µM (inactive) | 66.2 µM (inactive) | 49.1 µM (inactive) | 75.2 µM (inactive) | > 100 µM (inactive)
4 | CN(C)/N=C/c1cn(C)c(=O)n(C)c1=O | > 100 µM (inactive) | > 100 µM (inactive) | > 100 µM (inactive) | > 100 µM (inactive) | > 100 µM (inactive) | > 100 µM (inactive) | > 100 µM (inactive) | > 100 µM (inactive) | > 100 µM (inactive) | > 100 µM (inactive) | > 100 µM (inactive) | > 100 µM (inactive) | > 100 µM (inactive) | > 100 µM (inactive) | > 100 µM (inactive) | > 100 µM (inactive) | 35.4 µM (inactive) | > 100 µM (inactive) | > 100 µM (inactive) | > 100 µM (inactive)
5 | Cc1cccc2c(N)c3cccc(C(=O)NCC[N+](C)(C)Cc4ccc([N+](=O)[O-])n4C)c3nc12 | 10.4 µM (inactive) | 10.1 µM (inactive) | 14.6 µM (inactive) | 4.6 µM (inactive) | 33.5 µM (inactive) | 9.53 µM (inactive) | 18 µM (inactive) | 8.65 µM (inactive) | 41.3 µM (inactive) | 15.2 µM (inactive) | 13.2 µM (inactive) | 24.7 µM (inactive) | 17.6 µM (inactive) | 13.5 µM (inactive) | 67.6 µM (inactive) | 21.7 µM (inactive) | 6.32 µM (inactive) | 47.9 µM (inactive) | 8.26 µM (inactive) | 53.5 µM (inactive)
6 | COc1ccc(/C(CC2OC(=O)c3ccccc32)=N\NC(N)=O)cc1 (configuration not stated) | > 100 µM (inactive) | > 100 µM (inactive) | > 100 µM (inactive) | > 100 µM (inactive) | > 100 µM (inactive) | > 100 µM (inactive) | > 100 µM (inactive) | > 100 µM (inactive) | > 100 µM (inactive) | > 100 µM (inactive) | > 100 µM (inactive) | > 100 µM (inactive) | > 100 µM (inactive) | > 100 µM (inactive) | > 100 µM (inactive) | > 100 µM (inactive) | > 100 µM (inactive) | > 100 µM (inactive) | > 100 µM (inactive) | > 100 µM (inactive)
7 | C1CCNCC1.S=C(S)N1CCCCC1 | 36.7 µM (inactive) | 87.7 µM (inactive) | 14.1 µM (inactive) | 0.307 µM (active) | 95.1 µM (inactive) | 5.96 µM (inactive) | 60.5 µM (inactive) | 26.4 µM (inactive) | 13.1 µM (inactive) | 19.1 µM (inactive) | 62.2 µM (inactive) | 71 µM (inactive) | 213 µM (inactive) | 80.7 µM (inactive) | 85.3 µM (inactive) | 1.74 µM (inactive) | 61.2 µM (inactive) | 135 µM (inactive) | 1.46 µM (inactive) | 28.4 µM (inactive)
8 | COc1ccc2c(c1[N+](=O)[O-])CC[C@@H]1[C@@H]2CC[C@]2(C)C(=O)CC[C@@H]12 | > 25 µM (inactive) | > 25 µM (inactive) | 20.3 µM (inactive) | 24.5 µM (inactive) | 21.4 µM (inactive) | > 18 µM (inactive) | > 25 µM (inactive) | > 25 µM (inactive) | > 925 µM (inactive) | 17.2 µM (inactive) | > 25 µM (inactive) | > 25 µM (inactive) | > 25 µM (inactive) | > 25 µM (inactive) | 14.8 µM (inactive) | > 25 µM (inactive) | > 25 µM (inactive) | > 25 µM (inactive) | > 25 µM (inactive) | > 25 µM (inactive)
9 | Nc1cccc(OCC2CCCN3CCCCC23)c1 (configuration not stated) | 14.4 µM (inactive) | 18 µM (inactive) | 16.3 µM (inactive) | 20.1 µM (inactive) | 28.5 µM (inactive) | – | 15.8 µM (inactive) | 19.5 µM (inactive) | 16 µM (inactive) | 23.5 µM (inactive) | 17.7 µM (inactive) | 16.9 µM (inactive) | 17.7 µM (inactive) | 18.3 µM (inactive) | 20.1 µM (inactive) | 18.9 µM (inactive) | 16.7 µM (inactive) | 17.4 µM (inactive) | 24.4 µM (inactive) | 19 µM (inactive)
10 | CCOC(=O)C(CCc1ncnc2c1ncn2Cc1ccccc1)(CCc1ncnc2c1ncn2Cc1ccccc1)C(=O)OCC | 47.4 µM (inactive) | 81.8 µM (inactive) | 51.4 µM (inactive) | 38.3 µM (inactive) | 69.7 µM (inactive) | 89.9 µM (inactive) | 44.4 µM (inactive) | 37.9 µM (inactive) | 33 µM (inactive) | 61.7 µM (inactive) | 46.1 µM (inactive) | 90.8 µM (inactive) | > 100 µM (inactive) | 30.3 µM (inactive) | 44.1 µM (inactive) | 48.5 µM (inactive) | – | 82.6 µM (inactive) | 62.1 µM (inactive) | 31.7 µM (inactive)
11 | CC(C)CCCC(C)[C@H]1CC[C@H]2N/C(=N/Cc3ccccc3)CCC[C@]12C (some centres not stated) | 1.95 µM (inactive) | – | 2.6 µM (inactive) | 2.11 µM (inactive) | 2.09 µM (inactive) | 1.74 µM (inactive) | 1.92 µM (inactive) | 1.71 µM (inactive) | 1.71 µM (inactive) | 1.97 µM (inactive) | 2.23 µM (inactive) | 2.07 µM (inactive) | – | 1.83 µM (inactive) | 1.97 µM (inactive) | 1.58 µM (inactive) | 1.83 µM (inactive) | 2.08 µM (inactive) | 1.78 µM (inactive) | 2.42 µM (inactive)
12 | COC(=O)c1ccc(NCc2c(O)ccc(O)c2Br)cc1Cl | > 100 µM (inactive) | 15.6 µM (inactive) | 17.8 µM (inactive) | 1.69 µM (inactive) | 14.9 µM (inactive) | 14.5 µM (inactive) | 13 µM (inactive) | 16 µM (inactive) | 12 µM (inactive) | 18.3 µM (inactive) | 16.6 µM (inactive) | 8.77 µM (inactive) | 14.6 µM (inactive) | 14.2 µM (inactive) | 19.1 µM (inactive) | 18.5 µM (inactive) | 23.1 µM (inactive) | – | 16.7 µM (inactive) | 25.2 µM (inactive)
13 | CCOc1cc(NC(C)=O)ccc1C(=O)NN1C(=O)/C(=C/c2ccco2)N=C1c1ccccc1 | > 100 µM (inactive) | > 100 µM (inactive) | > 100 µM (inactive) | > 100 µM (inactive) | 36.2 µM (inactive) | > 100 µM (inactive) | > 100 µM (inactive) | > 100 µM (inactive) | > 100 µM (inactive) | > 100 µM (inactive) | > 100 µM (inactive) | > 100 µM (inactive) | > 100 µM (inactive) | > 100 µM (inactive) | > 100 µM (inactive) | 54.6 µM (inactive) | > 100 µM (inactive) | – | – | > 100 µM (inactive)
14 | Cn1c(=O)c2sc3c4sc5c(=O)n(C)c6ccccc6c5c4sc3c2c2ccccc21 | > 100 µM (inactive) | 48.1 µM (inactive) | > 100 µM (inactive) | > 100 µM (inactive) | 90.8 µM (inactive) | > 100 µM (inactive) | – | > 100 µM (inactive) | > 100 µM (inactive) | > 100 µM (inactive) | > 100 µM (inactive) | > 100 µM (inactive) | > 100 µM (inactive) | > 100 µM (inactive) | > 100 µM (inactive) | > 100 µM (inactive) | 42.6 µM (inactive) | > 100 µM (inactive) | 47.5 µM (inactive) | > 100 µM (inactive)
